Drawing on US9845330B2, “6-nitro-2,3-dihydroimidazo[2,1-b]oxazoles and a process for the preparation thereof” (priority 2013, dated 2017), this text covers MIC for 21 molecules.

In brackets after ≈: the same amount, converted by molar mass.

The subject of assay [1] is M. tuberculosis XDR (resistant to isoniazid, rifampicin, amikacin and moxifloxacin). As to the kind of experiment: microbe, parasite or virus in culture. The format is cell-based. The note with it: Mycobacterium tuberculosis, 504 h, read-out: MIC M. tb XDR.
Assay [2] deals with M. tuberculosis MDR (resistant to isoniazid and rifampicin). Put plainly: microbe, parasite or virus in culture. The note with it: Mycobacterium tuberculosis, 504 h, read-out: MIC M. tb MDR. The format is cell-based.

Consider `C[C@]1(COc2ccc(-n3cc(-c4ccccc4)nn3)cc2)Cn2cc([N+](=O)[O-])nc2O1` [IA1], for which the MIC in assay [1] and in assay [2] was 4 µg/mL (≈ 9.56 µM) throughout.

Take `CCc1ccc(-c2cn(-c3ccc(OC[C@@]4(C)Cn5cc([N+](=O)[O-])nc5O4)cc3)nn2)cc1` [IA2, (R)-2-{4-[4-(4-ethylphenyl)-1H-1,2,3-triazol-1-yl]phenoxymethyl}-2,3-dihydro-2-methyl-6-nitroimidazo[2,1-b]oxazole]: the MIC in assay [1] and in assay [2] was 4 µg/mL (≈ 8.96 µM) in each case.

With `C[C@]1(COc2ccc(-n3cc(-c4ccc(F)cc4)nn3)cc2)Cn2cc([N+](=O)[O-])nc2O1` [IA3, (R)-2-{4-[4-(4-fluorophenyl)-1H-1,2,3-triazol-1-yl]phenoxymethyl}-2,3-dihydro-2-methyl-6-nitroimidazo[2,1-b]oxazole], the MIC in assay [1] and in assay [2] was 0.25 µg/mL (≈ 0.573 µM) in each case.

For the molecule `C[C@]1(COc2ccc(-n3cc(-c4ccccc4F)nn3)cc2)Cn2cc([N+](=O)[O-])nc2O1` [IA4, (R)-2-{4-[4-(2-fluorophenyl)-1H-1,2,3-triazol-1-yl]phenoxymethyl}-2,3-dihydro-2-methyl-6-nitroimidazo[2,1-b]oxazole], the MIC in assay [1] and in assay [2] was 2 µg/mL (≈ 4.58 µM) each time.

Turning to `C[C@]1(COc2ccc(-n3cc(-c4ccc(OC(F)(F)F)cc4)nn3)cc2)Cn2cc([N+](=O)[O-])nc2O1` [IA5, (R)-2-{4-[4-(4-trifluoromethoxyphenyl)-1H-1,2,3-triazol-1-yl]phenoxymethyl}-2,3-dihydro-2-methyl-6-nitroimidazo[2,1-b]oxazole], the MIC in assay [1] and in assay [2] was 0.5 µg/mL (≈ 0.995 µM) each time.

For the molecule `C[C@]1(COc2ccc(-n3cc(-c4ccccc4C(F)(F)F)nn3)cc2)Cn2cc([N+](=O)[O-])nc2O1` [IA6, (R)-2-{4-[4-(2-trifluoromethylphenyl)-1H-1,2,3-triazol-1-yl]phenoxymethyl}-2,3-dihydro-2-methyl-6-nitroimidazo[2,1-b]oxazole], the MIC in assay [1] and in assay [2] was 1 µg/mL (≈ 2.06 µM) each time.

Consider `C[C@]1(COc2ccc(-n3cc(-c4ccc(F)cc4F)nn3)cc2)Cn2cc([N+](=O)[O-])nc2O1` [IA7, (R)-2-{4-[4-(2,4-difluorophenyl)-1H-1,2,3-triazol-1-yl]phenoxymethyl}-2,3-dihydro-2-methyl-6-nitroimidazo[2,1-b]oxazole], for which the MIC in assay [1] and in assay [2] was 2 µg/mL (≈ 4.4 µM) throughout.

Take `Cc1ccc(-c2cn(-c3ccc(OC[C@@]4(C)Cn5cc([N+](=O)[O-])nc5O4)cc3)nn2)cc1` [IA8, (R)-2-{4-[4-(4-methylphenyl)-1H-1,2,3-triazol-1-yl]phenoxymethyl}-2,3-dihydro-2-methyl-6-nitroimidazo[2,1-b]oxazole]: the MIC in assay [1] and in assay [2] was 1 µg/mL (≈ 2.31 µM) in each case.

As to `CC(C)c1ccc(-c2cn(-c3ccc(OC[C@@]4(C)Cn5cc([N+](=O)[O-])nc5O4)cc3)nn2)cc1` [IA9, (R)-2-{4-[4-(4-isopropylphenyl)-1H-1,2,3-triazol-1-yl]phenoxymethyl}-2,3-dihydro-2-methyl-6-nitroimidazo[2,1-b]oxazole], the MIC in assay [1] and in assay [2] was 1 µg/mL (≈ 2.17 µM) in each case.

On to `C[C@]1(COc2ccc(-n3cc(-c4cccc(F)c4)nn3)cc2)Cn2cc([N+](=O)[O-])nc2O1` [IA10, (R)-2-{4-[4-(3-fluorophenyl)-1H-1,2,3-triazol-1-yl]phenoxymethyl}-2,3-dihydro-2-methyl-6-nitroimidazo[2,1-b]oxazole], for which the MIC in assay [1] and in assay [2] was 2 µg/mL (≈ 4.58 µM) throughout.

Consider `COc1ccc(-c2cn(-c3ccc(OC[C@@]4(C)Cn5cc([N+](=O)[O-])nc5O4)cc3)nn2)cc1` [IA11, (R)-2-{4-[4-(4-methoxyphenyl)-1H-1,2,3-triazol-1-yl]phenoxymethyl}-2,3-dihydro-2-methyl-6-nitroimidazo[2,1-b]oxazole], for which the MIC in assay [1] and in assay [2] was 0.25 µg/mL (≈ 0.557 µM) each time.

`C[C@]1(COc2ccc(-n3cc(-c4cccc(OC(F)(F)F)c4)nn3)cc2)Cn2cc([N+](=O)[O-])nc2O1` [IA12, (R)-2-{4-[4-(3-trifluoromethoxyphenyl)-1H-1,2,3-triazol-1-yl]phenoxymethyl}-2,3-dihydro-2-methyl-6-nitroimidazo[2,1-b]oxazole]: the MIC in assay [1] and in assay [2] was 0.5 µg/mL (≈ 0.995 µM) throughout.

Regarding `C[C@]1(COc2ccc(-n3cc(-c4cccc(C(F)(F)F)c4)nn3)cc2)Cn2cc([N+](=O)[O-])nc2O1` [IA13, (R)-2-{4-[4-(3-trifluoromethylphenyl)-1H-1,2,3-triazol-1-yl]phenoxymethyl}-2,3-dihydro-2-methyl-6-nitroimidazo[2,1-b]oxazole], the MIC in assay [1] and in assay [2] was 2 µg/mL (≈ 4.11 µM) in each case.

With `C[C@]1(COc2ccc(-n3cc(-c4ccccn4)nn3)cc2)Cn2cc([N+](=O)[O-])nc2O1` [IA14], the MIC in assay [1] and in assay [2] was 2 µg/mL (≈ 4.77 µM) in each case.

As for `CCCCCc1cn(-c2ccc(OC[C@@]3(C)Cn4cc([N+](=O)[O-])nc4O3)cc2)nn1` [IA15, (R)-2-{4-[4-pentyl-1H-1,2,3-triazol-1-yl]phenoxymethyl}-2,3-dihydro-2-methyl-6-nitroimidazo[2,1-b]oxazole], the MIC in assay [1] and in assay [2] was 32 µg/mL (≈ 77.6 µM) throughout.

As to `CCCCCCCc1cn(-c2ccc(OC[C@@]3(C)Cn4cc([N+](=O)[O-])nc4O3)cc2)nn1` [IA16, (R)-2-{4-[4-heptyl-1H-1,2,3-triazol-1-yl]phenoxymethyl}-2,3-dihydro-2-methyl-6-nitroimidazo[2,1-b]oxazole], the MIC in assay [1] and in assay [2] was 4 µg/mL (≈ 9.08 µM) in each case.

Take `C[C@]1(COc2cccc(-n3cc(-c4ccc(F)cc4)nn3)c2)Cn2cc([N+](=O)[O-])nc2O1` [IA17, (R)-2-{3-[4-(4-fluorophenyl)-1H-1,2,3-triazol-1-yl]phenoxymethyl}-2,3-dihydro-2-methyl-6-nitroimidazo[2,1-b]oxazole]: the MIC in assay [1] and in assay [2] was 2 µg/mL (≈ 4.58 µM) throughout.

`C[C@]1(COc2cccc(-n3cc(-c4ccc(C(F)(F)F)cc4)nn3)c2)Cn2cc([N+](=O)[O-])nc2O1` [IA18, (R)-2-{3-[4-(4-trifluoromethylphenyl)-1H-1,2,3-triazol-1-yl]phenoxymethyl}-2,3-dihydro-2-methyl-6-nitroimidazo[2,1-b]oxazole]: the MIC in assay [1] and in assay [2] was 2 µg/mL (≈ 4.11 µM) each time.

`C[C@]1(COc2cccc(-n3cc(-c4ccc(OC(F)(F)F)cc4)nn3)c2)Cn2cc([N+](=O)[O-])nc2O1` [IA19, (R)-2-{3-[4-(4-trifluoromethoxyphenyl)-1H-1,2,3-triazol-1-yl]phenoxymethyl}-2,3-dihydro-2-methyl-6-nitroimidazo[2,1-b]oxazole]: the MIC in assay [1] and in assay [2] was 4 µg/mL (≈ 7.96 µM) throughout.

For the molecule `C[C@]1(COc2cccc(-n3cc(-c4ccc(F)cc4F)nn3)c2)Cn2cc([N+](=O)[O-])nc2O1` [IA20, (R)-2-{3-[4-(2,4-difluorophenyl)-1H-1,2,3-triazol-1-yl]phenoxymethyl}-2,3-dihydro-2-methyl-6-nitroimidazo[2,1-b]oxazole], the MIC in assay [1] and in assay [2] was 4 µg/mL (≈ 8.8 µM) each time.

In the case of `C[C@]1(COc2ccccc2-n2cc(-c3ccc(F)cc3)nn2)Cn2cc([N+](=O)[O-])nc2O1` [IA21, (R)-2-{2-[4-(4-fluorophenyl)-1H-1,2,3-triazol-1-yl]phenoxymethyl}-2,3-dihydro-2-methyl-6-nitroimidazo[2,1-b]oxazole], the MIC in assay [1] and in assay [2] was 1 µg/mL (≈ 2.29 µM) each time.
